Data published in ChEMBL document CHEMBL1122049, “Synthesis and in vitro antimicrobial activity of 5-substituted 2H-1,3,5-thiadiazine-2,4(3H)-diones” (1982).
≈ marks a conversion by molar mass, not a printed value.

Legend:
Candida albicans = assay: Minimum inhibitory concentration against Candida albicans in Sabouraud dextrose broth by using […]; assay type: functional
Trichophyton benhamiae = assay: Minimum inhibitory concentration against Trichophyton mentagrophytes in Sabouraud dextrose broth by using […]; assay type: functional, Arthroderma benhamiae

Row | Compound | MIC (Candida albicans) [µg/mL] | MIC (Trichophyton benhamiae) [µg/mL]
1 | O=c1nc(-c2ccc3c(c2)OCO3)sc(=O)[nH]1 | > 250 | 125 (≈ 500 µM)
2 | O=c1nc(-c2cccs2)sc(=O)[nH]1 | 62 (≈ 292 µM) | 2 (≈ 9.42 µM)
3 | O=c1nc(-c2ccc(Cl)cc2)sc(=O)[nH]1 | 15 (≈ 62.3 µM) | 4 (≈ 16.6 µM)
4 | CC(C)c1nc(=O)[nH]c(=O)s1 | 81 (≈ 470 µM) | 15 (≈ 87.1 µM)
5 | O=c1nc(Cc2ccccc2)sc(=O)[nH]1 | 125 (≈ 568 µM) | < 2
6 | Oc1c(I)cc(Cl)c2cccnc12 [CLIOQUINOL] | 1 (≈ 3.27 µM) | 4 (≈ 13.1 µM)

Now from value to compound:

Row | MIC (Candida albicans) [µg/mL] | MIC (Trichophyton benhamiae) [µg/mL] | Compound
7 | > 250 | < 2 | Cc1ccc(-c2nc(=O)[nH]c(=O)s2)cc1
8 | 125 (≈ 529 µM) | 8 (≈ 33.9 µM) | COc1ccc(-c2nc(=O)[nH]c(=O)s2)cc1
9 | 62 (≈ 280 µM) | 8 (≈ 36.2 µM) | O=c1nc(Cc2cccnc2)sc(=O)[nH]1
10 | > 125 | 62 (≈ 249 µM) | CN(C)c1ccc(-c2nc(=O)[nH]c(=O)s2)cc1
11 | 15 (≈ 76.5 µM) | < 2 | O=c1nc(-c2ccco2)sc(=O)[nH]1
12 | 125 (≈ 473 µM) | 4 (≈ 15.1 µM) | O=c1nc(Cc2ccc3c(c2)OCO3)sc(=O)[nH]1
13 | 31 (≈ 125 µM) | < 2 | CC(=O)c1ccc(-c2nc(=O)[nH]c(=O)s2)cc1
14 | 8 (≈ 38.8 µM) | < 2 | O=c1nc(-c2ccccc2)sc(=O)[nH]1
